Measured values as given in publication PMC8312697, “Mechanistic Investigations Support Liver Safety of Ubrogepant” (Toxicological Sciences, 2020).

Legend:
[1] = test system: Nrf2 oxidative stress and Nrf1 proteasomal stress pathways; assay: In vitro rat HEPATOPAC gene expression BA-LRA; assay type: cell-based; conditions: 50 μM
dog = assay: Conventional nonclinical toxicology study, dog; conditions: 1M dog

SMILES | BA-LRA score [1] | Pivotal conventional nonclinical toxicology study liver findings (dog) | exposure margin (dog)
O=C(CN1C(=O)C2(CCCC2)NC[C@H]1c1cc(F)cc(F)c1)Nc1ccc2c(c1)C[C@@]1(C2)C(=O)Nc2ncccc21 [MK-3207] | > 0.2 | slight periportal vacuolation with < 4× ALT/AST associated with excessive body weight loss | 17 ×
O=C(N[C@@H]1CC[C@@H](c2cccc(F)c2F)CN(CC(F)(F)F)C1=O)N1CCC(n2c(=O)[nH]c3ncccc32)CC1 [Telcagepant] | > 0.2 | – | –
